Experimental data taken from US9822130B2, “Triazolo-pyrazinyl derivatives useful as soluble guanylate cyclase activators” (Merck Sharp & Dohme Corp., priority 2014, dated 2017).

These compounds were tested against T1, sGC α1/β1 heterodimer stably expressed in CHO-K1 cell line (CHO-K1/sGC) (Homo sapiens, UniProt Q02108+Q02153) (assay: Cell-based sGC Functional Assay (CASA Assay), cGMP generation). Settings: CHO-K1/sGC cells, 1 hr at 37° C., cGMP by HTRF, 4P fit; presence or absence of 1 μM DETA-NO not given; read-out: IP (nM) (inflection point).
T1 construct: expressed in transfected cells
T1 sequence (Q02108 1-690): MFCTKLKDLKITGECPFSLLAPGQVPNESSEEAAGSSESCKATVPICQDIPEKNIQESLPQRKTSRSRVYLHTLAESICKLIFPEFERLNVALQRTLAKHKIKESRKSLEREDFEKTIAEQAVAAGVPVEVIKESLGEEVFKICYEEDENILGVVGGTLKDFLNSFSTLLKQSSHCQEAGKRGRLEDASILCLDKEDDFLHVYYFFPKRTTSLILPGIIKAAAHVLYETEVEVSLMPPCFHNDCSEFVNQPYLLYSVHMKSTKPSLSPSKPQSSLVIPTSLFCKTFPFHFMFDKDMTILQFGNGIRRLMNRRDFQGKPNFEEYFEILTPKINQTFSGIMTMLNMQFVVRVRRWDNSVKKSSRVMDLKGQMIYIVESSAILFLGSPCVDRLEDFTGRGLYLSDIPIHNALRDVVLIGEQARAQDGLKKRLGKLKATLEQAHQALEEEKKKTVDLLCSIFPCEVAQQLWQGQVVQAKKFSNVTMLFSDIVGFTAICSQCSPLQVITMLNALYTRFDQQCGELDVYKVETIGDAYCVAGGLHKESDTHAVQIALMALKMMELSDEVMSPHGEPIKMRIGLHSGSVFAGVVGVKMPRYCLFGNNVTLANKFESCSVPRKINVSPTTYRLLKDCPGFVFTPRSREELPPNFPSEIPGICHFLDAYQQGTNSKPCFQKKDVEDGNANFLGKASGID
T1 sequence (Q02153 1-619): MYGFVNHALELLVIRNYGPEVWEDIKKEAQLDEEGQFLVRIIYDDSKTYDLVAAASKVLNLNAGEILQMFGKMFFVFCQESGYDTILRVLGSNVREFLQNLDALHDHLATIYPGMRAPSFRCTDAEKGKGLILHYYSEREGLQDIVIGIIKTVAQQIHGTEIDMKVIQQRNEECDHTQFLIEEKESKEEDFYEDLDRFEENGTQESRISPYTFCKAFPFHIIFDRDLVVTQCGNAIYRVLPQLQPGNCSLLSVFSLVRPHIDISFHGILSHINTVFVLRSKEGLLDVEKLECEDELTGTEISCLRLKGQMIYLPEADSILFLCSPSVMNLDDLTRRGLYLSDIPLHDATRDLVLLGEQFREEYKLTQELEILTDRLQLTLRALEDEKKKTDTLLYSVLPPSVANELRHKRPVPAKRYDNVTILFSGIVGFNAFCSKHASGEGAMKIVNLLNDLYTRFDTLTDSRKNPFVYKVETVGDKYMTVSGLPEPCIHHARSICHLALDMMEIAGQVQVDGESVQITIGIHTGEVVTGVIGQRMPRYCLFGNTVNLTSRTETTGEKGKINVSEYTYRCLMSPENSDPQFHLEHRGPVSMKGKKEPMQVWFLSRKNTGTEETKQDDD
How it was run: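 Readout is HTRF cGMP in lysates, normalised to the maximal response of reference sGC activator Compound A (100%), with a 4P fit giving IP and fold induction. Cells were CHO-K1/sGC (human α1/β1) in EBSS buffer with IBMX, incubated 1 hr at 37° C with compound. Run with and without 1 μM DETA-NO; final DMSO 2.5%.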

`C[C@@]1(c2ccc(F)cc2)C(=O)Nc2nc(-c3cn4ncnc4c(CCCC(F)(F)F)n3)nc(N)c21` [Example 23A, (S)-4-amino-5-(4-fluorophenyl)-5-mclhyl-2-(S-(4,4,4-trifluorobutyl)-[1,2,4]triazolo[1,5-a]pyrazin-6-yl)-5,7-dihydro-6H-pyrrolo[2,3-d]pyrimidin-6-one] and `CC(F)(F)c1ccc(C2(C)C(=O)Nc3nc(-c4cn5ncnc5c(CCCC(F)(F)F)n4)nc(N)c32)cn1` (racemic) [Example 45B, 4-amino-5-(6-(1,1-difluoroethyl)pyridin-3-yl)-5-methyl-2-(8-(4,4,4-trifluorobutyl)-[1,2,4]triazolo[1,5-a]pyrazin-6-yl)-5H-pyrrolo[2,3-d]pyrimidin-6(7H)-one] are within 1.5-fold of each other in EC50: 29.6 nM for the first, 44.2 nM for the second.

`Nc1nc(-c2cn3ncnc3c(CCCC(F)(F)F)n2)nc2c1C(c1nnc(C3CC3)o1)(C1CC1)C(=O)N2` (centres unmarked) [Example 104A, 4-amino-5-cyclopropyl-5-(5-cyclopropyl-1,3,4-oxadiazol-2-yl)-2-(8-(4,4,4-trifluorobutyl)-[1,2,4]triazolo[1,5-a]pyrazin-6-yl)-5H-pyrrolo[2,3-d] pyrimidin-6(7H)-one] and `Nc1nc(-c2cn3ncnc3c(CCCC(F)(F)F)n2)nc2c1C(c1ccc(O)cn1)(C1CC1)C(=O)N2` (centres unmarked) [Example 112A, 4-amino-5-cyclopropyl-5-(5-hydroxypyridin-2-yl)-2-(8-(4,4,4-trifluorobutyl)-[1,2,4]triazolo[1,5-a]pyrazin-6-yl)-5H-pyrrolo[2,3-d]pyrimidin-6(7H)-one] are within 1.5-fold of each other in EC50: 258 nM for the first, 212 nM for the second.

Compared with `Cc1ccc(C2(C)C(=O)Nc3nc(-c4cn5ncnc5c(CCC(F)(F)C(F)(F)F)n4)nc(N)c32)nc1` (centres unmarked) [Example 19B, 4-amino-5-methyl-5-(5-methylpyridin-2-yl)-2-(8-(3,3,4,4,4-pentafluorobutyl)-[1,2,4]triazolo[1,5-a]pynizin-6-yl)-5H-pyrrolo[2,3-d]pyrimidin-6(7H)-one], `CC1(c2ccc(F)cn2)C(=O)Nc2nc(-c3cn4ncnc4c(CCC(F)(F)F)n3)nc(N)c21` (centres unmarked) [Example 81B, 4-amino-5-(5-fluoropyridin-2-yl)-5-methyl-2-(8-(3,3,3-trifluoropropyl)-[1,2,4]triazolo[1,5-a]pyrazin-6-yl)-5H-pyrrolo[2,3-d]pyrimidin-6(7H)-one] is 47-fold higher in EC50: 14.7 nM for the first, 698 nM for the second. The first is the more potent here.

First: CC1(c2ccc(Cl)c(F)c2)C(=O)Nc2nc(-c3cn4ncnc4c(CCC(F)(F)F)n3)nc(N)c21 (centres unmarked) [Example 75B, 4-amino-5-(4-chloro-3-fluorophenyl)-5-methyl-2-(8-(3,3,3-trifluoropropyl)-[1,2,4]triazolo[1,5-a]pyrazin-6-yl)-5H-pyrrolo[2,3-d]pyrimidin-6(7H)-one]
Second: CCCc1nc(-c2nc(O)c3c(n2)NC(=O)C3(C)c2ccc(Cl)cc2)cn2ncnc12 (centres unmarked) [Example 164A, 5-(4-chlorophenyl)-4-hydroxy-5-methyl-2-(8-propyl-[1,2,4]triazolo[1,5-a]pyrazin-6-yl)-5H-pyrrolo[2,3-d]pyrimidin-6(7H)-one]
The EC50 of the first is 39-fold lower: 20 nM for the first, 780 nM for the second. The first is the more potent here.

`CC1(c2cn(C3CC3)nn2)C(=O)Nc2nc(-c3cn4ncnc4c(CCC(F)(F)C(F)(F)F)n3)nc(N)c21` (centres unmarked) [Example 95B, 4-Amino-5-(1-cyclopropyl-1H-1,2,3-triazol-4-yl)-5-methyl-2-(8-(3,3,4,4,4-pentafluorobutyl)-[1,2,4]triazolo[1,5-a]pyrazin-6-yl)-5H-pyrrolo[2,3-d]pyrimidin-6(7H)-one] and `CC1(c2ccc(Cl)cn2)C(=O)Nc2nc(-c3cn4ncnc4c(CCC(F)(F)C(F)(F)F)n3)ncc21` (centres unmarked) [Example 175A, 5-(5-chloropyridin-2-yl)-5-methyl-2-(8-(3,3,4,4,4-pentafluorobutyl)-[1,2,4]triazolo[1,5-a]pyrazin-6-yl)-5H-pyrrolo[2,3-d]pyrimidin-6(7H)-one] are within 1.5-fold of each other in EC50: 257 nM for the first, 384 nM for the second.

In the case of `NC(=O)c1nc(-c2cn3ncnc3c(CCCC(F)(F)F)n2)nc2c1C(c1ccc(C(F)(F)F)cn1)(C1CC1)C(=O)N2` (centres unmarked) [Example 178A], the EC50 is reported as 199 nM.
